Legend:
[1] = system: ABCA1 protein in PDAC cells; settings: PDAC cells (Raimund O, Life Sci Alliance, 2022); cited from earlier work
[2] = system: hBMECs; assay: Toxicity (cell survival rate) in hBMECs; type: cell-based, human; settings: up to 5 μg/mL, 8 hours
Method: (§1) The toxicity of 24HC-containing rHDL nanoparticles toward hBMECs, iBMECs, pericytes, and normal brain astrocytes, which constitute the BBB until the nanoparticles penetrate the BBB and reach the GBM, was evaluated. hBMECs, iBMECs, pericytes, and astrocytes were seeded into a 96-well cell culture plate. Pericytes were cultured in PM medium, astrocytes were cultured in the same culture medium as described in Example 1, and hBMEC and iBMEC cells were cultured in the same culture medium as described in Example 6. After 24 hours of incubation, the cells were treated with the nanoparticles according to the present invention at concentrations ranging from Oto 5 μg/mL, and the cell survival rate (%) was evaluated after 8 hours of incubation. […] In addition, it was confirmed that the nanoparticles are not toxic to normal brain cells other than GBM.

[3] = system: iBMECs; assay: Toxicity (cell survival rate) in iBMECs; type: cell-based, human; settings: up to 5 μg/mL, 8 hours
Method: as §1

[4] = system: pericytes; assay: Toxicity (cell survival rate) in pericytes; type: cell-based; settings: up to 5 μg/mL, 8 hours
Method: as §1

[5] = system: normal brain astrocytes; assay: Toxicity (cell survival rate) in astrocytes; type: cell-based; settings: up to 5 μg/mL, 8 hours
Method: as §1

[6] = system: LDLR mRNA expression in U87MG cells; assay: qPCR of LDLR mRNA in U87MG; type: cell-based; settings: 1 μg/mL of 24HC, 24 hours
Description: (§2) 24HC is an endogenous LXR agonist and is known to induce the expression of genes responsible for cholesterol efflux, such as ABCA1 and ABCG1, thereby inducing intracellular cholesterol efflux, and to inhibit exogenous cholesterol uptake by downregulating LDLR. Accordingly, we anticipated that treatment of GBM with 24HC-containing rHDL nanoparticles would result in a greater decrease in LDLR expression and an increase in ABCA1 expression due to the action of 24HC, compared to the treatment with 24HC alone. Therefore, U87MG and LN229 cells were treated with 24HC, 24HC-containing rHDL nanoparticles, and rHDL nanoparticles, and the changes in LDLR and ABCA1 mRNA expression were confirmed using qPCR (real-time polymerase chain reaction). U87MG and LN229 cells were seeded at 0.5×10^5 cells/well in a 6-well cell culture plate and cultured for 24 hours under the conditions described in Example 1 above. In qPCR experiments, U87MG cells were treated with 1 μg/mL of 24HC for 24 hours, and LN229 cells were treated with 5 μg/mL of 24HC for 24 hours, and changes in LDLR mRNA were confirmed. […] In the case of rHDL nanoparticles, the amount of apolipoprotein E3 in the 24HC-containing rHDL nanoparticles was quantified using a BCA assay, and the same amount of apolipoprotein E3 corresponding to the 24HC treatment concentration was calculated prior to treatment with rHDL nanoparticles.

[7] = system: LDLR mRNA expression in LN229 cells; assay: qPCR of LDLR mRNA in LN229; type: cell-based; settings: LN229, 5 μg/mL of 24HC, 24 hours
Description: as §2

[8] = system: ABCA1 mRNA expression in U87MG cells; assay: qPCR of ABCA1 mRNA in U87MG; type: cell-based; settings: 1 μg/mL of 24HC, 4 hours
Description: as §2

[9] = system: ABCA1 mRNA expression in LN229 cells; assay: qPCR of ABCA1 mRNA in LN229; type: cell-based; settings: LN229, 5 μg/mL of 24HC, 4 hours
Description: as §2

[10] = system: U87MG cells; assay: GBM cell survival rate in U87MG; type: cell-based; settings: Homo sapiens, U-87 MG, 0-50 μg/mL, 48 hours
Method: (§3) In order to determine whether cholesterol depletion caused by intracellular cholesterol efflux inhibits GBM cell proliferation and induces cell death, U87MG and LN229 cells were treated with rHDL nanoparticles, 24HC, and 24HC-containing rHDL nanoparticles, and the cell survival rate was evaluated. After 24 hours of incubation, the cells were treated with the nanoparticles according to the present invention at concentrations of 0-50 μg/mL, and the cell survival rate (%) was evaluated after 48 hours of incubation.

[11] = system: LN229 cells; assay: GBM cell survival rate in LN229; type: cell-based; settings: Homo sapiens, LN-229, 0-50 μg/mL, 48 hours
Method: as §3

[12] = system: LDLR mRNA expression in GBM #P1 and GBM #P2 cells; assay: qPCR of LDLR mRNA in patient-derived GBM cells; type: cell-based; settings: GBM #P1 and GBM #P2, 2 μg/mL of 24HC, 4 hours
Method: GBM #P1 and GBM #P2 cells were treated with 24HC, 24HC-containing rHDL nanoparticles, and rHDL nanoparticles, and the changes in LDLR and ABCA1 mRNA expression were confirmed using qPCR. GBM #P1 and GBM #P2 cells were seeded at 0.5×10^5 cells/well in a 6-well cell culture plate and were cultured for 24 hours. The cells were cultured under the conditions as described in Example 12 above. GBM #P1 and GBM #P2 cells were treated with 24HC and 24HC-containing rHDL nanoparticles at a concentration of 2 μg/mL of 24HC for 4 hours. In the case of rHDL nanoparticles, the amount of apolipoprotein E3 in the 24HC-containing rHDL nanoparticles was quantified using a BCA assay, and then the same amount of apolipoprotein E3 corresponding to the 24HC treatment concentration was calculated prior to treatment with rHDL nanoparticles.

[13] = system: GBM #P1 cells; assay: Cell viability in patient-derived GBM #P1; type: cell-based; settings: 0-50 μg/mL, 48 hours
Method: (§4) In order to determine whether cholesterol depletion due to intracellular cholesterol efflux inhibits GBM cell proliferation and induces cell death, GBM #P1 and GBM #P2 cells were treated with rHDL nanoparticles, 24HC, and 24HC-containing rHDL nanoparticles, and cell viability was evaluated. After 24 hours of incubation, the cells were treated with 0-50 μg/mL of the nanoparticles, and the cell viability (%) was assessed after 48 hours of incubation.

[14] = system: GBM #P2 cells; assay: Cell viability in patient-derived GBM #P2; type: cell-based; settings: 0-50 μg/mL, 48 hours
Method: as §4

Compound	Expression of the ABCA1 protein [1]	Toxicity in hBMECs [2]	Toxicity in iBMECs [3]	Toxicity in pericytes [4]	Toxicity in astrocytes [5]	Level of LDLR mRNA expression compared to the control group [6]	Level of LDLR mRNA expression compared to the control group [7]	Level of ABCA1 mRNA expression compared to the control group [8]	Level of ABCA1 mRNA expression compared to the control group [9]	IC50 [10] [µg/mL]	IC50 [11] [µg/mL]	Level of LDLR mRNA expression, lower compared to the control group [12]	IC50 [13] [µg/mL]	IC50 [14] [µg/mL]
O=S(=O)(c1ccccc1)N(CC(F)(F)F)c1ccc(C(O)(C(F)(F)F)C(F)(F)F)cc1 [Formulation T0901317]	increased the expression of the ABCA1 protein	–	–	–	–	–	–	–	–	–	–	–	–	–
CC(C)C(O)CC[C@@H](C)[C@H]1CC[C@H]2[C@@H]3CC=C4C[C@@H](O)CC[C@]4(C)[C@H]3CC[C@]12C (some centres unmarked) [Formulation 24HC, 24-hydroxycholesterol]	–	none of the rHDL nanoparticles, 24HC, or 24HC-containing rHDL nanoparticles exhibited toxicity	none of the rHDL nanoparticles, 24HC, or 24HC-containing rHDL nanoparticles exhibited toxicity	none of the rHDL nanoparticles, 24HC, or 24HC-containing rHDL nanoparticles exhibited toxicity	none of the rHDL nanoparticles, 24HC, or 24HC-containing rHDL nanoparticles exhibited toxicity	decreased	decreased	increased	increased	6.7	12.8	significantly reduced	40.2	13.8

— patent US20260053747A1, “RECONSTITUTED HIGH-DENSITY LIPOPROTEIN NANOPARTICLES COMPRISING CHOLESTEROL” (MEPSGEN CO., LTD., priority 2023, published 2026)
